Non-standard residues stand in square brackets, D forms with d. Residues, ends and D or L forms follow the SMILES beside them. Arg(Me) = CNC(=N)NCCC[C@H](N)C(=O)O; d3Pal = N[C@H](Cc1cccnc1)C(=O)O; azaGly = NNC(=O)O
Key:
[1] = biological target: T1, Muscarinic acetylcholine receptor M1 (Homo sapiens) (UniProt P11229); test: Selectivity interaction (GPCR panel (PDSP screen)) EUB0001072a CHRM1; conditions: at 10 µM
T1 sequence (whole entry): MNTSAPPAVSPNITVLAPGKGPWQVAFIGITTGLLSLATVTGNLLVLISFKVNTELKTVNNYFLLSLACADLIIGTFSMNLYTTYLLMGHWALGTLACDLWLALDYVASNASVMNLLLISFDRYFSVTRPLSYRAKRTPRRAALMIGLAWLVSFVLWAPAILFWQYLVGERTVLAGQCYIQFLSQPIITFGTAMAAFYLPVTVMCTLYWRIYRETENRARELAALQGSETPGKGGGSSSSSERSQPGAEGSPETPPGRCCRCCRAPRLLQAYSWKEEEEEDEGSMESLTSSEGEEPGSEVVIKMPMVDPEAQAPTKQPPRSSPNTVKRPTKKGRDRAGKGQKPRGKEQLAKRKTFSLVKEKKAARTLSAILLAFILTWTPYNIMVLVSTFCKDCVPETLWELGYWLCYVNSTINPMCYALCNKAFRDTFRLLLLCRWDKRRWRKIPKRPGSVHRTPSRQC

[2] = biological target: T2, Gamma-aminobutyric acid receptor subunit alpha-1 (Homo sapiens) (UniProt P14867); test: (§1) Selectivity interaction (GPCR panel (PDSP screen)) EUB0001072a GABRA1; conditions: at 10 µM
T2 sequence (whole entry): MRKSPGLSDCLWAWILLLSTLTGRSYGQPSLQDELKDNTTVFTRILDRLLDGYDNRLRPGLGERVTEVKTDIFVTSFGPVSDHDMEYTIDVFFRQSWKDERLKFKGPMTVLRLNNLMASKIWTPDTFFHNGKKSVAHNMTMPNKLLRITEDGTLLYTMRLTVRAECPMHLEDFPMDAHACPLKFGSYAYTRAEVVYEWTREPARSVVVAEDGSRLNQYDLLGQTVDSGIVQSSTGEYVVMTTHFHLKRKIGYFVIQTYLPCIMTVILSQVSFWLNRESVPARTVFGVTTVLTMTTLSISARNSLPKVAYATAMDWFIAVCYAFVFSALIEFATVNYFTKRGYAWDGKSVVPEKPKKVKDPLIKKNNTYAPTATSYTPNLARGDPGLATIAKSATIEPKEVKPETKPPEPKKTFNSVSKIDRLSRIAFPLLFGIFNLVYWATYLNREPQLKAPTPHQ

[3] = biological target: 5-hydroxytryptamine receptor 5A (Homo sapiens) (UniProt P47898); test: Selectivity interaction (GPCR panel (PDSP screen)) EUB0001072a HTR5A; conditions: at 10 µM
[4] = biological target: Alpha-2B adrenergic receptor (Homo sapiens) (UniProt P18089); test: Selectivity interaction (GPCR panel (PDSP screen)) EUB0001072a ADRA2B; conditions: at 10 µM
[5] = biological target: D(1B) dopamine receptor (Homo sapiens) (UniProt P21918); test: Selectivity interaction (GPCR panel (PDSP screen)) EUB0001072a DRD5; conditions: at 10 µM
[6] = biological target: 5-hydroxytryptamine receptor 1B (Homo sapiens) (UniProt P28222); test: Selectivity interaction (GPCR panel (PDSP screen)) EUB0001072a HTR1B; conditions: at 10 µM
[7] = biological target: Muscarinic acetylcholine receptor M4 (Homo sapiens) (UniProt P08173); test: Selectivity interaction (GPCR panel (PDSP screen)) EUB0001072a CHRM4; conditions: at 10 µM
Sequence of Muscarinic acetylcholine receptor M4 (Homo sapiens) (P08173 whole entry): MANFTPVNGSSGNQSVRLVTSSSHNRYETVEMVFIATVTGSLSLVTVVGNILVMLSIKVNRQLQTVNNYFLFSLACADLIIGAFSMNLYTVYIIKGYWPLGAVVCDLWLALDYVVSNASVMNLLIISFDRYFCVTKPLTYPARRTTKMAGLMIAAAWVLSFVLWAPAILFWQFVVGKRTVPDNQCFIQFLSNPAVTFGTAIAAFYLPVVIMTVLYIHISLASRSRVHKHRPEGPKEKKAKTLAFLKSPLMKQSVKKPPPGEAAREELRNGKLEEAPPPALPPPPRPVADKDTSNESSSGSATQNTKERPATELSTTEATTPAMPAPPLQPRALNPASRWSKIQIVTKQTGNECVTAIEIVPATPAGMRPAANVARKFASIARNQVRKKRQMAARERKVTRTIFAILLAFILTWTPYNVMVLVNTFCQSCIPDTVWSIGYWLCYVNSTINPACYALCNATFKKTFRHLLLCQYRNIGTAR

[8] = biological target: Sodium-dependent dopamine transporter (Homo sapiens, UniProt Q01959); test: Selectivity interaction (GPCR panel (PDSP screen)) EUB0001072a SLC6A3; conditions: at 10 µM
Sequence of Sodium-dependent dopamine transporter (Q01959 whole entry): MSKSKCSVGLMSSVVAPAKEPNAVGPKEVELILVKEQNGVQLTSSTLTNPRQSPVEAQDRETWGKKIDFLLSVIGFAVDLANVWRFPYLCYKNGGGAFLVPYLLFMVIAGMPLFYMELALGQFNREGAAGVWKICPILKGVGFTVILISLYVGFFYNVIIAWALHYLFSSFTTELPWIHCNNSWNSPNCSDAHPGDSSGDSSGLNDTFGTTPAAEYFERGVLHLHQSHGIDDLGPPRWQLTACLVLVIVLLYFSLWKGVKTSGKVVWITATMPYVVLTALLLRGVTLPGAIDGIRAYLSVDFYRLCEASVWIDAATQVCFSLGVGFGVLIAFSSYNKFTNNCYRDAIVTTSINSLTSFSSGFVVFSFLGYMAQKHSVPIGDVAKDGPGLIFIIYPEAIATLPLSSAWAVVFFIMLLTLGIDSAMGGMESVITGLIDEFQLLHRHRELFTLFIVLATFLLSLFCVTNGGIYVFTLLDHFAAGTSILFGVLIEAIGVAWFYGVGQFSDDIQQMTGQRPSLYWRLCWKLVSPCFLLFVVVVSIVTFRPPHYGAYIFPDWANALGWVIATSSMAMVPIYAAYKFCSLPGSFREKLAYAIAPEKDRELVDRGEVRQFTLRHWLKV

[9] = biological target: 5-hydroxytryptamine receptor 1D (Homo sapiens) (UniProt P28221); test: Selectivity interaction (GPCR panel (PDSP screen)) EUB0001072a HTR1D; conditions: at 10 µM
Sequence of 5-hydroxytryptamine receptor 1D (Homo sapiens) (P28221 whole entry): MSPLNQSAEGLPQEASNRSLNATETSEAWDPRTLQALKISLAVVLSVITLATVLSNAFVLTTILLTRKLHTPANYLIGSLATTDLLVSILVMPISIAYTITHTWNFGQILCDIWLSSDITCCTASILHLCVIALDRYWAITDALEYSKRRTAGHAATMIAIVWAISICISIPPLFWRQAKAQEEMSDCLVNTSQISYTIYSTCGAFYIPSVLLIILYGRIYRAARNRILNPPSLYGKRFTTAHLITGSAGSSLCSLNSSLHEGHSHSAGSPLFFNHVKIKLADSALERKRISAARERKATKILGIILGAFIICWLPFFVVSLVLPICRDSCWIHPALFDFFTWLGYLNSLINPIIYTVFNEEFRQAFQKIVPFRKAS

[10] = biological target: T3, 5-hydroxytryptamine receptor 1A (Homo sapiens) (UniProt P08908); test: Selectivity interaction (GPCR panel (PDSP screen)) EUB0001072a HTR1A; conditions: at 10 µM
T3 sequence (whole entry): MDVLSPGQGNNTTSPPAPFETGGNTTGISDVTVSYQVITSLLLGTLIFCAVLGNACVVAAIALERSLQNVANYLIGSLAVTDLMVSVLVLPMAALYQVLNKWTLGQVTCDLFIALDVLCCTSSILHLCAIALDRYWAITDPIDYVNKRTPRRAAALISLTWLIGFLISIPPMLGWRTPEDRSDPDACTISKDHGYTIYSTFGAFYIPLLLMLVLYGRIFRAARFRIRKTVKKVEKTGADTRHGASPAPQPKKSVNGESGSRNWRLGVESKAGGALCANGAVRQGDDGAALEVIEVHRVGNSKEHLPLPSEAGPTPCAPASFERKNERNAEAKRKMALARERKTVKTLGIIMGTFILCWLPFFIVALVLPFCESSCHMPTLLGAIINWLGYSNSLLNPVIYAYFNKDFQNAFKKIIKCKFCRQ

[11] = biological target: 5-hydroxytryptamine receptor 2A (Homo sapiens, UniProt P28223); test: Selectivity interaction (GPCR panel (PDSP screen)) EUB0001072a HTR2A; conditions: at 10 µM
Sequence of 5-hydroxytryptamine receptor 2A (P28223 whole entry): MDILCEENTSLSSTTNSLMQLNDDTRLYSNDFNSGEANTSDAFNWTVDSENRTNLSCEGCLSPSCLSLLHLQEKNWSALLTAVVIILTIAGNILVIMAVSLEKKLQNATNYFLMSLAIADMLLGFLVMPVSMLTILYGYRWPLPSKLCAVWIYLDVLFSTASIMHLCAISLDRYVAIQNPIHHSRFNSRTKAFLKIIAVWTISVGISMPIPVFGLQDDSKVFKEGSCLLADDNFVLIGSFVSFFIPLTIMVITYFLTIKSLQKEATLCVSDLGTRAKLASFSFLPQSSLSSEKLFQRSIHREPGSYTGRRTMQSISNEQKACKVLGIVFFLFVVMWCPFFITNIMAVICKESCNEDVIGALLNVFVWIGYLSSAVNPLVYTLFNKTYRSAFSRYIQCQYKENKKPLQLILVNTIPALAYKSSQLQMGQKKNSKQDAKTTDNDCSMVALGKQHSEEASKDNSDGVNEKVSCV

[12] = biological target: Muscarinic acetylcholine receptor M5 (Homo sapiens) (UniProt P08912); test: Selectivity interaction (GPCR panel (PDSP screen)) EUB0001072a CHRM5; conditions: at 10 µM
Sequence of Muscarinic acetylcholine receptor M5 (Homo sapiens) (P08912 whole entry): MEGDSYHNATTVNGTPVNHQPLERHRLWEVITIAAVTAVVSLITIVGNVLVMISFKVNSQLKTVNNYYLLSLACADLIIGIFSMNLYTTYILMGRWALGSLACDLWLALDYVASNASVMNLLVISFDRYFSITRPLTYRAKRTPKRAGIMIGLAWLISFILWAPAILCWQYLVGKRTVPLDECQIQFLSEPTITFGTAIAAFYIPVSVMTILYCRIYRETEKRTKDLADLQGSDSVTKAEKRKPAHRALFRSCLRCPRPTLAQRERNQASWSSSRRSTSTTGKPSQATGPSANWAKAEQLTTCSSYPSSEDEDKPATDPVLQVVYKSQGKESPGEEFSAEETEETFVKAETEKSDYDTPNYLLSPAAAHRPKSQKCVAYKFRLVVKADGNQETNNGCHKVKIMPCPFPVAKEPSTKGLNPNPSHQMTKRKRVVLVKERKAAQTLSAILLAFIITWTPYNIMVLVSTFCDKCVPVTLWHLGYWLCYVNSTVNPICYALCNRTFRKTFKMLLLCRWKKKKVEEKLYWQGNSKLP

[13] = biological target: T4, Muscarinic acetylcholine receptor M2 (Homo sapiens) (UniProt P08172); test: Selectivity interaction (GPCR panel (PDSP screen)) EUB0001072a CHRM2; conditions: at 10 µM
T4 sequence (whole entry): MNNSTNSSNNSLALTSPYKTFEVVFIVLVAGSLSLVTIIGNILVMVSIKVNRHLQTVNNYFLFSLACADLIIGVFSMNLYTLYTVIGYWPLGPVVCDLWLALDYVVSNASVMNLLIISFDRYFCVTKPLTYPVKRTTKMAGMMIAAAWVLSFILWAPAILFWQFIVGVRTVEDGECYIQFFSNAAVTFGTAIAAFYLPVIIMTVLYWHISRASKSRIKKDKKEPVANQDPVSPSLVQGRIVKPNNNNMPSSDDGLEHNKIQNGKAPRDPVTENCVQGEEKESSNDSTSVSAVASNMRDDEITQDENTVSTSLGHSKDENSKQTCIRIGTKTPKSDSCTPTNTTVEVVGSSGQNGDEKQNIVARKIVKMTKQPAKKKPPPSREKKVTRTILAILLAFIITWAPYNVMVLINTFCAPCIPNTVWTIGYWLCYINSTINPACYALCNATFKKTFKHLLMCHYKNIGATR

[14] = biological target: Muscarinic acetylcholine receptor M3 (Homo sapiens, UniProt P20309); test: Selectivity interaction (GPCR panel (PDSP screen)) EUB0001072a CHRM3; conditions: at 10 µM
Sequence of Muscarinic acetylcholine receptor M3 (P20309 whole entry, looked up): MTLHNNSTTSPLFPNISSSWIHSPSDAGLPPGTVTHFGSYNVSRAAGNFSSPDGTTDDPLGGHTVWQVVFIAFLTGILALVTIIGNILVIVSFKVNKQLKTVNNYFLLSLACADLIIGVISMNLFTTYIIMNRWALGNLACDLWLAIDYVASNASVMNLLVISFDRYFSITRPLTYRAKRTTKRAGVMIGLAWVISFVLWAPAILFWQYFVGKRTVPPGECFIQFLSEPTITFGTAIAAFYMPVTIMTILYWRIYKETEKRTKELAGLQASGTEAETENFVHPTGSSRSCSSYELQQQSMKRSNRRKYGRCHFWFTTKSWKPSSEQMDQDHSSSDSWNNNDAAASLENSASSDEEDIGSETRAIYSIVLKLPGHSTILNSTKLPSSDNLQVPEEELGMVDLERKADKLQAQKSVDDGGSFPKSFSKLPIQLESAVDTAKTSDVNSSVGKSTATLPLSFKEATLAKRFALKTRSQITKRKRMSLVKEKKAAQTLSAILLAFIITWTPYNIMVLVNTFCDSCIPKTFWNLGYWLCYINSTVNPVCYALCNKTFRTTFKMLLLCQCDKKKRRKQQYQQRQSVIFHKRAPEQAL

[15] = biological target: 4-aminobutyrate aminotransferase, mitochondrial (Homo sapiens, UniProt P80404); test: Selectivity interaction (GPCR panel (PDSP screen)) EUB0001072a ABAT; conditions: at 10 µM
Sequence of 4-aminobutyrate aminotransferase, mitochondrial (P80404 whole entry): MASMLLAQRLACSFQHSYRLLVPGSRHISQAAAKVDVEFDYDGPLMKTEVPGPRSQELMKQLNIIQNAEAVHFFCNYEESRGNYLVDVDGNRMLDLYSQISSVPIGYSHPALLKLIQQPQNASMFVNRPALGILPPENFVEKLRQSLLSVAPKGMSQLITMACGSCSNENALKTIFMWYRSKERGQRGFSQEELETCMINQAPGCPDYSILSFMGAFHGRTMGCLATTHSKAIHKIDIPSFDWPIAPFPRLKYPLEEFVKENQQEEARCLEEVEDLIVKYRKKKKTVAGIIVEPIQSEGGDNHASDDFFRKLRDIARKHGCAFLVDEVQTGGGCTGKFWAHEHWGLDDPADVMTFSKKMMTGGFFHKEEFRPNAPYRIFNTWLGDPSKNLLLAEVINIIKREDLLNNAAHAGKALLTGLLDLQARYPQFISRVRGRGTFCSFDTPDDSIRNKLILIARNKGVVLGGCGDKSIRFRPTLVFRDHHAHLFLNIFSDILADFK

Histamine H3 receptor = Histamine H3 receptor (Homo sapiens, UniProt Q9Y5N1); test: Selectivity interaction (GPCR panel (PDSP screen)) EUB0001072a HRH3; conditions: at 10 µM
[16] = biological target: 5-hydroxytryptamine receptor 1E (Homo sapiens) (UniProt P28566); test: Selectivity interaction (GPCR panel (PDSP screen)) EUB0001072a HTR1E; conditions: at 10 µM
Sequence of 5-hydroxytryptamine receptor 1E (Homo sapiens) (P28566 whole entry): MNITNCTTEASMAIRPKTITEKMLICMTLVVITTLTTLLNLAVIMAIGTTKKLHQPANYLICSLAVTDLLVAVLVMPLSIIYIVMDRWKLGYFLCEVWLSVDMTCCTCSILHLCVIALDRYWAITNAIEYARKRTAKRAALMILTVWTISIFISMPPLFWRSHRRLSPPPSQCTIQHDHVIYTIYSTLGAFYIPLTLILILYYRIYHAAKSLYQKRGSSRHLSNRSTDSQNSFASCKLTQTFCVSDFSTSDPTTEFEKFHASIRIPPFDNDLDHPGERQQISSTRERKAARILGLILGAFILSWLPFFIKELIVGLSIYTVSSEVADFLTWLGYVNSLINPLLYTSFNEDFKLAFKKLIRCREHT

[17] = biological target: 5-hydroxytryptamine receptor 2B (Homo sapiens, UniProt P41595); test: Selectivity interaction (GPCR panel (PDSP screen)) EUB0001072a HTR2B; conditions: at 10 µM
Sequence of 5-hydroxytryptamine receptor 2B (P41595 whole entry): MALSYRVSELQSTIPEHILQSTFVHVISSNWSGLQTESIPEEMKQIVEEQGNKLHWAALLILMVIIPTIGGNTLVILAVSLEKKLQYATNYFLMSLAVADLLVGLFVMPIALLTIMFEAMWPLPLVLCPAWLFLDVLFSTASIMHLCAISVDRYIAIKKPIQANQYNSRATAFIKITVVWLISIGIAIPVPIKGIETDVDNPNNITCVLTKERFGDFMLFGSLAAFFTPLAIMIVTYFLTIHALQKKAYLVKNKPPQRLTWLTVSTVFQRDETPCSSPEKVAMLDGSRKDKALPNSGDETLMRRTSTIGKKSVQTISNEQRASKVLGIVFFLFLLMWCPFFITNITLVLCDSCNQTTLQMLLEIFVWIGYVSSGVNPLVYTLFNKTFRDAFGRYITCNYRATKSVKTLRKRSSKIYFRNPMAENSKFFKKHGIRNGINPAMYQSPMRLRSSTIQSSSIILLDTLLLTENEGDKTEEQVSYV

[18] = biological target: T2, Gamma-aminobutyric acid receptor subunit alpha-1 (Homo sapiens); test: as §1; conditions: at 10 µM; remark: listed apart in the source
[19] = biological target: Serine/threonine-protein kinase PAK 2 (Homo sapiens) (UniProt Q13177); test: Selectivity interaction (33PanQinase Assay (Reaction Biology)) EUB0001107a PAK2
[20] = biological target: Mitogen-activated protein kinase kinase kinase kinase 5 (Homo sapiens) (UniProt Q9Y4K4); test: Selectivity interaction (33PanQinase Assay (Reaction Biology)) EUB0001107a MAP4K5
[21] = biological target: Serine/threonine-protein kinase PAK 3 (Homo sapiens) (UniProt O75914); test: Selectivity interaction (33PanQinase Assay (Reaction Biology)) EUB0001107a PAK3
[22] = biological target: Serine/threonine-protein kinase 38-like (Homo sapiens) (UniProt Q9Y2H1); test: Selectivity interaction (KinomeScan (DiscoverX)) EUB0001068a STK38L; conditions: at 1 µM
Sequence of Serine/threonine-protein kinase 38-like (Homo sapiens) (Q9Y2H1 2-464 limits assumed): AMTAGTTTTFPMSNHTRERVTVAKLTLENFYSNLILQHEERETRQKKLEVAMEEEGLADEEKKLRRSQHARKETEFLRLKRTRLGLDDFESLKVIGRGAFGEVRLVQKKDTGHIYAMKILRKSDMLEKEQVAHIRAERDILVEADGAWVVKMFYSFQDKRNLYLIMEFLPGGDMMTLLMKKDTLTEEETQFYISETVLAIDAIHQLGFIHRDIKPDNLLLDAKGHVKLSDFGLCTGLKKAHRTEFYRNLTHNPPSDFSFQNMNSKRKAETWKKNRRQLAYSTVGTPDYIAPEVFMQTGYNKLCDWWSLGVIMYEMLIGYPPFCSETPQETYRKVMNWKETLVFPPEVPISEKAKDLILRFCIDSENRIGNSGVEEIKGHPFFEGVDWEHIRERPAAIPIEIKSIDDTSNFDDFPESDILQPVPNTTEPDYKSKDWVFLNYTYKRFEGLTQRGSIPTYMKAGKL

[23] = biological target: T5, Cytoplasmic tyrosine-protein kinase BMX (Homo sapiens) (UniProt P51813); test: Selectivity interaction (KinomeScan (DiscoverX)) EUB0001068a BMX; conditions: at 1 µM
T5 sequence (whole entry): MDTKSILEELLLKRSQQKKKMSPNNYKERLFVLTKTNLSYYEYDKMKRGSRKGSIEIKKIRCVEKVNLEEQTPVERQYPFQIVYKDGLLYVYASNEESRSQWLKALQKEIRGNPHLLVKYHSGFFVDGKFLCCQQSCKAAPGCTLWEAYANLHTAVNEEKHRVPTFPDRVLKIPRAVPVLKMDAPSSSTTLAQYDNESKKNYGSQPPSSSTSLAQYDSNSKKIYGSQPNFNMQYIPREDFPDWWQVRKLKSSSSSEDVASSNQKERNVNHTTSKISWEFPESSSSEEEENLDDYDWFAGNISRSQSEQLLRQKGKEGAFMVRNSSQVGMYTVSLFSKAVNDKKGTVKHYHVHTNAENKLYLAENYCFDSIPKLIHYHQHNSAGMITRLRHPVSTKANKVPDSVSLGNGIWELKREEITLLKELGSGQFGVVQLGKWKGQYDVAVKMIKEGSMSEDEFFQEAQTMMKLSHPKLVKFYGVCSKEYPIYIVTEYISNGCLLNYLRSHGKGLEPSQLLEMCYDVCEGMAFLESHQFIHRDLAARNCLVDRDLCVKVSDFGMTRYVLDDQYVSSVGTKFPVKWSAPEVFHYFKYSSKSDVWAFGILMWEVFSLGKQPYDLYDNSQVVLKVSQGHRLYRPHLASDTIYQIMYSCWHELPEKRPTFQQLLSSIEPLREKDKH

[24] = biological target: T6, Serine/threonine-protein kinase Nek1 (Homo sapiens) (UniProt Q96PY6); test: Selectivity interaction (KinomeScan (DiscoverX)) EUB0001068a NEK1; conditions: at 1 µM
T6 sequence (whole entry): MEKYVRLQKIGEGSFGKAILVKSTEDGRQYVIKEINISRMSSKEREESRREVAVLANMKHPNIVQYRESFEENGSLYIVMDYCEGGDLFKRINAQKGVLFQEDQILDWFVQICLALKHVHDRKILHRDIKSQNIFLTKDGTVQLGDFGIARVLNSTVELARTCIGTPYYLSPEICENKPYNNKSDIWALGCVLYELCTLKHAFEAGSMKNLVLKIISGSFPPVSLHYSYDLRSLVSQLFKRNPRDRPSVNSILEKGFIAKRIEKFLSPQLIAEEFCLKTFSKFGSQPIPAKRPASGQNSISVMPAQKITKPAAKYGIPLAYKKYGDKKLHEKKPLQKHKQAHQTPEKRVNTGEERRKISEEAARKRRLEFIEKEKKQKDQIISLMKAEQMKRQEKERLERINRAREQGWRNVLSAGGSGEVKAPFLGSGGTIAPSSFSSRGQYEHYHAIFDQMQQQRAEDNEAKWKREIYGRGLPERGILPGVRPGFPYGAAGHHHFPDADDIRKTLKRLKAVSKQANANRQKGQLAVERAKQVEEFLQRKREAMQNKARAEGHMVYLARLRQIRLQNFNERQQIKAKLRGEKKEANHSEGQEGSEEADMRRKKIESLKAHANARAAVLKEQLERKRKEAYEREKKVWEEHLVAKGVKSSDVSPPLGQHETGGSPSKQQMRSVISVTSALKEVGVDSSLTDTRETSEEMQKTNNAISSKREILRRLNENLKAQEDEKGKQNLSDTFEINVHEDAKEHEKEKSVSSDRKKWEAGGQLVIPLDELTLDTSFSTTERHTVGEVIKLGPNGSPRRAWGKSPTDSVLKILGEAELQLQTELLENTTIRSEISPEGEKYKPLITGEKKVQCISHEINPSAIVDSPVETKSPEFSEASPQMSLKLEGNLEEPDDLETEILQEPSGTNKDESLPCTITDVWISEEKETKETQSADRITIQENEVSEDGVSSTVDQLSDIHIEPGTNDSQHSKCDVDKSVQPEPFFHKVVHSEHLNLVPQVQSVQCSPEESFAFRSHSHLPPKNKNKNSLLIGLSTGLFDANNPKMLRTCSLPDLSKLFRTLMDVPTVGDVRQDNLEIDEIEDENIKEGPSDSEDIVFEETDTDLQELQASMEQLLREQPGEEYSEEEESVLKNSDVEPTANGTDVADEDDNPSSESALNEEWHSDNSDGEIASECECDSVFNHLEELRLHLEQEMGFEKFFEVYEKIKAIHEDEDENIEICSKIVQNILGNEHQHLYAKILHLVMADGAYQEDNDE

CNC(=N)NCCC[C@H](NC(=O)[C@H](CC(C)C)NC(=O)NNC(=O)[C@H](Cc1ccccc1)NC(=O)[C@H](CO)NC(=O)[C@H](CC(N)=O)NC(=O)[C@@H](Cc1cccnc1)NC(=O)[C@H](N)Cc1ccc(O)cc1)C(=O)NCC(N)=O (H-[dY][d3Pal]NSF[azaGly]L[Arg(Me)]G-NH2)
% of inhibition [1]: 15.1% | % of inhibition [2]: 12.3% | % of inhibition [3]: 16.3% | % of inhibition [4]: 14.5% | % of inhibition [5]: 29.2% | % of inhibition [6]: 31% | % of inhibition [7]: 18.5% | % of inhibition [8]: 10.4% | % of inhibition [9]: 12.4% | % of inhibition [10]: 30.9% | % of inhibition [11]: 16.9% | % of inhibition [12]: 12.3% | % of inhibition [13]: 40.7% | % of inhibition [14]: 24.7% | % of inhibition [15]: 15.6% | % of inhibition (Histamine H3 receptor): 12.5% | % of inhibition [16]: 27.9% | % of inhibition [17]: 11.3% | % of inhibition [18]: 15.5%

CNc1ncc2cc(-c3ccc(-c4ncccc4F)cc3Cl)c(=O)n(C[C@H]3OC[C@H](N)CO3)c2n1
% of residual activity [19]: 10% | % of residual activity [20]: 8% | % of residual activity [21]: 9%

CN(C(=O)c1ccccc1)c1cc(N(C)c2ccc3c(c2)CCc2ccc(C(=O)NCCN4CCOCC4)cc2C3=O)ccc1F
% of control [22]: 47% | % of control [23]: 50% | % of control [24]: 45%

Reference: ChEMBL document CHEMBL5465560, “Selectivity Literature for EUbOPEN Chemogenomic Library” (2024)
